According to ChEMBL document CHEMBL3865792, “Antioxidant and antitumor activity of trolox, trolox succinate, and α-tocopheryl succinate conjugates with nitroxides” (Eur J Med Chem, 2016):

Experiments:
[1] = Cytotoxicity against mouse LMTK cells assessed as reduction in cell viability after 72 hrs by MTT assay; format: toxicity
[2] = Cytotoxicity against human RPMI8226 cells assessed as reduction in cell viability after 72 hrs by MTT assay; format: functional, cell-based; settings: RPMI-8226, 72 h
[3] = Ratio of IC50 for human U937 cells to concentration causing antioxidant activity in Salmonella typhimurium TA102 harboring […] mutant; format: functional, U-937
[4] = Cytotoxicity against human MT4 cells assessed as reduction in cell viability after 72 hrs by MTT assay; format: functional, cell-based; settings: MT4, 72 h
[5] = Cytotoxicity against hamster AG17-1 cells assessed as reduction in cell viability at 300 uM after 72 hrs by MTT assay; format: toxicity, cell-based, Cricetulus griseus; settings: Chinese hamster, read-out: INH
[6] = test system: Salmonella enterica subsp. enterica serovar Typhimurium; assay: Antioxidant activity in Salmonella typhimurium TA102 harboring […] mutant assessed as inhibition of t-BuO2H-dependant mutant formation at 3 uM preincubated with compound followed by t-BuO2H addition after 48 hrs by Ames test; format: functional
[7] = Ratio of IC50 for human CEM13 cells to concentration causing antioxidant activity in Salmonella typhimurium TA102 harboring […] mutant; format: functional
[8] = test system: Salmonella enterica subsp. enterica serovar Typhimurium; assay: Antioxidant activity in Salmonella typhimurium TA102 harboring […] mutant assessed as inhibition of t-BuO2H-dependant mutant formation at 0.3 uM preincubated with compound followed by t-BuO2H addition after 48 hrs by Ames test; format: functional
[9] = Ratio of IC50 for human MT4 cells to concentration causing antioxidant activity in Salmonella typhimurium TA102 harboring […] mutant; format: functional
[10] = Ratio of IC50 for human HEPG2 cells to concentration causing antioxidant activity in Salmonella typhimurium TA102 harboring […] mutant; format: functional
Salmonella typhimurium = assay: Genotoxicity in Salmonella typhimurium TA102 harboring […] mutant assessed as frequency of reversion from histidine auxotrophy to prototrophy at 30 mM after 48 hrs by Ames test (reference value: 209 +/- 10 No _unit); format: toxicity, organism-based; settings: salmonella enterica subsp. enterica serovar typhimurium, 30000 µM
[11] = Cytotoxicity against human U937 cells assessed as reduction in cell viability after 72 hrs by MTT assay; format: functional, cell-based; settings: U-937, 72 h
[12] = Cytotoxicity against human CEM13 cells assessed as reduction in cell viability after 72 hrs by MTT assay; format: functional, cell-based; settings: CEM13, 72 h
[13] = Cytotoxicity against human MCF7 cells assessed as reduction in cell viability after 72 hrs by MTT assay; format: functional, cell-based; settings: MCF7, 72 h
[14] = Cytotoxicity against human HepG2 cells assessed as reduction in cell viability after 72 hrs by MTT assay; format: functional, cell-based; settings: HepG2, 72 h
[15] = test system: Salmonella enterica subsp. enterica serovar Typhimurium; assay: Antioxidant activity in Salmonella typhimurium TA102 harboring […] mutant assessed as inhibition of t-BuO2H-dependant mutant formation at 30 uM preincubated with compound followed by t-BuO2H addition after 48 hrs by Ames test; format: functional
[16] = Cytotoxicity against mouse LMTK cells assessed as reduction in cell viability at 300 uM after 72 hrs by MTT assay; format: toxicity; settings: read-out: INH
[17] = Genotoxicity in Escherichia coli PQ37 expressing lacZ gene assessed as ratio of inducible beta-galactosidase activity to alkaline phosphatase activity at 30 mM after 2 hrs by SOS-chromotest relative to control; format: toxicity; settings: Escherichia coli PQ37 cells expressing lacZ gene, read-out: FC
[18] = Cytotoxicity against human CEM13 cells assessed as reduction in cell viability at 300 uM after 72 hrs by MTT assay; format: functional; settings: CEM13, 72 h
[19] = Cytotoxicity against hamster AG17-1 cells assessed as reduction in cell viability after 72 hrs by MTT assay; format: toxicity, cell-based, Cricetulus griseus; settings: Chinese hamster
[20] = Ratio of IC50 for human MCF7 cells to concentration causing antioxidant activity in Salmonella typhimurium TA102 harboring […] mutant; format: functional
[21] = Ratio of IC50 for human RPMI8226 cells to concentration causing antioxidant activity in Salmonella typhimurium TA102 harboring […] mutant; format: functional, RPMI-8226
[22] = Cytotoxicity against human HepG2 cells assessed as reduction in cell viability at 300 uM after 72 hrs by MTT assay; format: functional; settings: HepG2, 72 h
[23] = Cytotoxicity against human RPMI8226 cells assessed as reduction in cell viability at 300 uM after 72 hrs by MTT assay; format: functional; settings: RPMI-8226, 72 h
[24] = Cytotoxicity against human MCF7 cells assessed as reduction in cell viability at 300 uM after 72 hrs by MTT assay; format: functional; settings: MCF7, 72 h

Row | SMILES | IC50 at 72 h [1] [µM] | IC50 [2] [µM] | Ratio [3] | IC50 [4] [µM] | inhibition [6] [%] | Ratio [7] | inhibition [8] [%] | Ratio [9] | Ratio [10] | Activity (Salmonella typhimurium) | IC50 [11] [µM] | IC50 [12] [µM] | IC50 [13] [µM] | IC50 [14] [µM] | inhibition [15] [%] | cytotoxicity at 72 h, 300 µM [16] [%] | fold induction at 2 h, 30000 µM [17] | inhibition at 300 µM [18] [%] | IC50 at 72 h [19] [µM] | Ratio [20] | also measured
1 | Cc1c(C)c2c(c(C)c1OC(=O)CCC(=O)NC1CC(C)(C)N([O])C1(C)C)CC[C@@](C)(CCC[C@H](C)CCC[C@H](C)CCCC(C)C)O2 (some centres not stated) | > 300 | 55 | 100 - 1000 | 87 | 29 | 100 - 1000 | 21 | 100 - 1000 | 100 - 1000 | 227 | 69 | > 300 | 95 | > 300 | 12 | 30 | 0.8 | 34 | > 300 | 100 - 1000 | cytotoxicity at 72 h, 300 µM [5]: 38%; Ratio [21]: 100 - 1000; inhibition at 300 µM [22]: 38%
2 | Cc1c(C)c2c(c(C)c1O)CCC(C)(C(=O)NC1CC(C)(C)N([O])C1(C)C)O2 (configuration not stated) | > 300 | 58 | 100 - 1000 | 144 | 57.6 | 100 - 1000 | 55.2 | 100 - 1000 | 100 - 1000 | 221 | 98 | > 300 | 58 | 145 | 62 | 32 | 1.2 | 45 | 194 | 100 - 1000 | Ratio [21]: 100 - 1000
3 | Cc1c(C)c2c(c(C)c1OC(=O)CCC(=O)NC1CC(C)(C)N([O])C1(C)C)CCC(C)(C(=O)NC1CC(C)(C)N([O])C1(C)C)O2 (configuration not stated) | > 300 | > 300 | 100 - 1000 | 207 | 20 | 100 - 1000 | 22 | 100 - 1000 | 100 - 1000 | 229 | 75 | > 300 | 86 | > 300 | 13 | 10 | 1.1 | 34 | 166 | 100 - 1000 | inhibition at 300 µM [23]: 0%; Ratio [21]: 100 - 1000; inhibition at 300 µM [22]: 15%
4 | Cc1c(C)c2c(c(C)c1OC(=O)CCC(=O)O)CC[C@@](C)(CCC[C@H](C)CCC[C@H](C)CCCC(C)C)O2 [(+)-ALPHA-TOCOPHERYL SUCCINATE] | 73 | 63 | – | 66 | 63.2 | – | 56 | – | – | 216 | 113 | > 300 | 57 | 245 | 63.6 | – | 1.1 | 40 | 50 | – | –
5 | Cc1c(C)c2c(c(C)c1OC(=O)CCC(=O)NCC1CC(C)(C)N([O])C1(C)C)CCC(C)(C(=O)NCC1CC(C)(C)N([O])C1(C)C)O2 (configuration not stated) | > 300 | 70 | 100 - 1000 | 114 | 23 | 100 - 1000 | 13 | 100 - 1000 | 100 - 1000 | 209 | 61 | 107 | > 300 | 176 | 20 | 10 | 1.2 | – | 50 | 100 - 1000 | inhibition at 300 µM [24]: 32%; Ratio [21]: 100 - 1000
